According to paper PMC13242297, “Drug response profile-based machine learning enables strategic cell line and compound selection for drug development” (Bioinformatics, 2026):
Like-named read-outs stand apart in the source and are kept apart here.

Assays:
Assay type in all cases: cell-based
MCF7 cells = test: Cell Titer-Glo 3D cell viability assay, 48 h, MCF7
Description: (§1) Cell Culture: Cell viability was assessed using the MCF7 and MCF10A cell lines. Cells were maintained in relevant media throughout the study, in an incubator set to 37°C and 5% CO2, with media changes every 2–3 days. […] Compound plate preparation: […] Plates were sealed and stored at −4°C prior to use. Viability Assay: […] Plates were incubated for 48 h in a humidified incubator set to 37°C and 5% CO2. […] Cat #G9682). Plates were centrifuged briefly and incubated protected from light for 30 min at 30°C. Luminescence signal was measured using a CLARIOstar Plus microplate reader (BMG Labtech). Data Analysis: Raw relative luminescence unit (RLU) data were de-randomised prior to background subtraction. Viability was determined as a percentage of vehicle control (DMSO only). % Viability = ((Sample RLU—Mean Positive Control) ÷ (Mean Negative Control—Mean Positive Control)) × 100.

MCF10A cells = test: Cell Titer-Glo 3D cell viability assay, 48 h, MCF10A
Description: as §1

[1] = as above; details: human, MCF10A cells, MCF10A, 48 h, % of vehicle control
Description: as §1

[2] = Homo sapiens, MCF7; read-out: MCF7 IC50 Reached
[3] = Homo sapiens, MCF-10A; read-out: MCF10 IC50 Reached
[4] = Homo sapiens, MCF-10A; MCF10A, 48 h viability; read-out: IC50

| IC50 (MCF7 cells; [2]) | IC50 (in words) (MCF7 cells; MCF7, up to […]) | SMILES | IC50 (MCF10A cells; [3]) | IC50 (in words) (MCF10A cells; MCF10A, up to […]) | IC50 (MCF10A cells; [4]) | further results |
| --- | --- | --- | --- | --- | --- | --- |
| > 2500 nM | did not reach IC50 values | Nc1nc2[nH]cc(CCc3ccc(C(=O)N[C@@H](CCC(=O)O)C(=O)O)cc3)c2c(=O)[nH]1 [Pemetrexed] | > 2500 nM | did not reach IC50 values |  |  |
| > 2500 nM | did not reach IC50 values | Cc1cc([C@@H](C)Nc2ccccc2C(=O)O)c2nc(N3CCOCC3)cc(=O)n2c1 [AZD 6482] | > 2500 nM | did not reach IC50 values |  |  |
| > 2500 nM |  | Nc1ccn([C@@H]2O[C@H](CO)[C@@H](O)C2(F)F)c(=O)n1 [Gemcitabine] | < 2500 nM |  | < 250 nM |  |
| < 2500 nM |  | NS(=O)(=O)OC[C@@H]1C[C@@H](n2ccc3c(N[C@H]4CCc5ccccc54)ncnc32)C[C@@H]1O [Pevonedistat] | > 2500 nM |  | > 2500 nM | IC50 (MCF7 cells; Homo sapiens; MCF7, 48 h viability; read-out: IC50): < 100 nM |
|  |  | CC[C@@H]1C(=O)N(C)c2cnc(Nc3ccc(C(=O)NC4CCN(C)CC4)cc3OC)nc2N1C1CCCC1 [BI 2536] |  |  |  | IC50 (MCF7 cells; Homo sapiens, MCF7, 48 h): < 100 nM; IC50 (MCF7 cells; Homo sapiens, MCF7, read-out: MCF7 IC50 Reached): < 2500 nM; viability at 48 h, […] ([1]; 0.0025 uM): 92.4%; viability at 48 h, […] ([1]; 0.025 uM): 67.7%; viability at 48 h, […] ([1]; 0.25 uM): 72.3%; viability at 48 h, […] ([1]; 2.5 uM): 33.9%; IC50 (MCF10A cells; Homo sapiens, MCF-10A, 48 h): ~1000 nM; IC50 (MCF10A cells; Homo sapiens, MCF-10A, read-out: MCF10 IC50 Reached): < 2500 nM |
| > 2500 nM |  | Nc1ccn([C@@H]2O[C@H](CO)[C@@H](O)[C@@H]2O)c(=O)n1 [Cytarabine] | > 2500 nM |  |  |  |
